Laboratory results taken from patent publication US5939404A, “Cancer metastasis inhibitor containing a streptococcus agalactiae Ia type or Ib type surface polysaccharide as a main ingredient” (NGK Insulators, Ltd., priority 1997, dated 1999).

Tests used:
[1] = test system: adhesion between the cell-lined intravascular endothelial cell strain #5-1 and the cancer cells HL-60; test: Adhesion inhibition of [35S]methionine-labeled HL-60 cancer cells to cell-lined intravascular endothelial cell strain #5-1 (FIGS. 9(a), 9(b)); assay type: cell-based, human; settings: at a concentration at which the Ia or Ib sugar chain exhibited adhesion inhibiting activity
Protocol: (4) Next, how much adhesion of the cancer cell to the intravascular endothelial cells thus cultivated was inhibited by the addition of the sugar chain obtained above to the intravascular endothelial cells was examined. First, intravascular endothelial cells were placed on one plane of a 96-well plate, and appearance of E-selectin was induced by adding interleukin-1β to the cells. The cultivation for about 3 hours made E-selectin appear. The Ia type or Ib type sugar chain was added to it, and 1×10^4 cancer cells labeled with [^35 S] methionine were added to it, and the mixture was left at 37° C. for 30 minutes as it was. Thereafter, the mixture was immersed in and washed with PBS, and those cancer cells not adhered were washed off. The cells were recovered by adding 100 μl of a 0.1 N aqueous solution of sodium hydroxide to each of the 96-well plates, and a residual radioactivity value was measured by using a liquid scintillation counter.

E-selectin = E-selectin appearance on intravascular endothelial cells by fluorescent microscopy with E-selectin antibody (FIG. 7); assay type: cell-based; settings: interleukin-1β added (FIGS. 7(a), 7(b)) vs not added; human normal cells and strain #5
Protocol: FIGS. 7(a) through 7(d) are microphotographs obtained by photographing with a fluorescent microscope to confirm whether E-selectin was produced or not at the surfaces of the intravascular endothelial cells, through coloring the human normal intravascular endothelial cells and the cell-lined human intravascular endothelial cell strains #5 with E-selectin antibody. As compared with cases in which no interleukin-1β was added (FIGS. 7(c) and 7(d)), it is clear that appearance of E-selectin was induced in cases where interleukin-1β was added (FIGS. 7(a) and 7(b)).

[2] = test system: adhesion of the cancer cells HL-60 to the intravascular endothelial cells; test: Microscopic observation of adhesion of HL-60 cancer cells to intravascular endothelial cells (FIG. 8); assay type: cell-based, human; settings: interleukin-1β added (FIG. 8b) vs not added (FIG. 8a)
From the text: Slender, large cells are intravascular endothelial cells, and whitish, bright, round cells are cancer cells HL-60.

colominic acid
adhesion inhibiting activity [1]: not almost exhibited

interleukin-1β: added to the cells to induce appearance of E-selectin
appearance of E-selectin (E-selectin): induced
adhesion of the cancer cells to the intravascular endothelial cells (microphotographs) [2]: more conspicuous
